Earlier results as cited in patent publication US5585357A, “Heteroaryloxymethyl ketones as interleukin-1βconverting enzyme inhibitors” (Sanofi Winthrop Inc., priority 1996, dated 1996).

Tests used:
[1] = animal model of ulcerative colitis
[2] = system: chronic myelogenous leukemia cells; conditions: cells removed from leukemia patients
[3] = PG-APS model of arthritis in rats
[4] = small open-label human trial, subcutaneous
[5] = rat, oral administration

Compound	tissue necrosis and number of inflammatory cells in the colon [1]	colony growth [2]	joint swelling [3]	efficacy in Rheumatoid Arthritis [4]	inflammation and pyrexia [5]
IL-1ra: naturally occurring IL-1β receptor antagonist	reduced tissue necrosis and the number of inflammatory cells in the colon	inhibit colony growth	supresses joint swelling	shows efficacy	–
CCOC(=O)C[C@H](NC(=O)[C@H](C)NC(=O)[C@@H](NC(=O)OCc1ccccc1)C(C)C)C(=O)COC(=O)c1c(Cl)cccc1Cl [SDZ 224-015]	–	–	–	–	Reduction of inflammation and pyrexia
